According to US20240009190A1, “COMBINATION CANCER THERAPY USING CHK INHIBITOR” (SHANGHAI HUAYU BIOTECHNOLOGY CO., LTD., priority 2020, published 2024):

Key:
[1] = test system: CT-26 WT cells; assay: CT-26 WT subcutaneous tumor model, CHK inhibitors at lower dose with anti-m-PD-1 antibody (Example 2); format: in vivo, BALB/c female mice; settings: for Average tumor size: compounds 15 mg/kg tail vein once per day, anti-m-PD-1 10 mg/kg IP once every five days; for Tumor weight based TGI: compounds 15 mg/kg, anti-m-PD-1 10 mg/kg; for Tumor weight, Average: group average of 8 mice; for Tumor weight, Mouse no. 1 / Tumor weight, Mouse no. 2 / Tumor weight, Mouse no. 3 / Tumor weight, Mouse no. 4 / Tumor weight, Mouse no. 5 / Tumor weight, Mouse no. 6 / Tumor weight, Mouse no. 7 / Tumor weight, Mouse no. 8: individual mouse
Protocol: The anti-tumor effect of Compound 6 at a lower dose in combination with an anti-PD-1 antibody was studied in this Example. Further, three compounds obtained by structurally modifying Compound 6, i.e., Compound 6-1, Compound 6-2 and Compound 6-3, were tested alone or in combination with an anti-PD-1 antibody for their anti-tumor effects.
At Day 0, 105 BALB/c female mice, 4-5 weeks old, were subcutaneously injected with about 200.0 μL of the CT-26 WT cell medium containing about 5×10^5 cells, respectively.
At Day 5, 80 tumor-bearing mice were randomly assigned to ten groups according to their body weights, 8 mice per group. The remaining mice were subject to euthanasia.
The ten groups of animals were administered with an anti-m-PD-1 antibody (BE0146, BioXcell) in PBS (21-040-CVR, BioXcell) at 1.0 mg/mL, Compound 6 in saline at 1.5 mg/mL, Compound 6-1 in saline at 1.5 mg/mL, Compound 6-2 in saline at 1.5 mg/mL, Compound 6-3 in saline at 1.5 mg/mL, the anti-m-PD-1 antibody+Compound 6, the anti-m-PD-1 antibody+Compound 6-1, the anti-m-PD-1 antibody+Compound 6-2, the anti-m-PD-1 antibody+Compound 6-3, and the control vehicle (saline), respectively, at doses shown in Table 3 below.
(§1) Mice were observed every day for their physical conditions and activities, and mice body weight and tumor volume were measured every Tuesday, Thursday and Sunday. The tumor volume (V) was calculated as (length×width^2)/2.
(§2) At Day 23, mice were subject to euthanasia, from which tumors were collected, weighed and photographed. Mice body weights, tumor sizes and tumor weights were analyzed using the t-test in SPSS, and group differences were deemed statistically significant when the p-value was 0.05 or less. Tumor weight based tumor growth inhibition (TGI) and Zheng-Jun Jin's Q value were calculated.

[2] = Mice body weight in CT-26 WT tumor model (Example 2); format: in vivo, BALB/c female mice; settings: for Average body weight: compounds 15 mg/kg tail vein once per day, anti-m-PD-1 10 mg/kg IP once every five days; for average mice weight, tumor weight deducted: compounds 15 mg/kg, anti-m-PD-1 10 mg/kg
Protocol: as §1, §2

[3] = test system: MC38 cells; assay: MC38 tumor model in transgenic mice, Compound 6, anti-PD-1 antibody and gemcitabine (Example 5); format: in vivo, C57BL/6-Pdcd1^em(hPDCD1) Cd274^em1(hPD-L1)/Smoc mice; settings: Day 23; Compound 6 15 mg/kg IP QD × 14; GEM 20 mg/kg IV QW × 2; anti-PD-1 10 mg/kg IP Q5D × 3
Protocol: MC38 cells were maintained at 37° C. in 5% CO2 in RPMI 1640 medium (10-040-CV, Corning cellgro) supplemented with 10% FBS (10270-106, GIBCO) and used before the 10th subculture.
Female C57BL/6-Pdcd1^em(hPDCD1) Cd274^em1(hPD-L1)/Smoc mice (Shanghai Model Organisms), 20-25 g, were subcutaneously injected with about 5×10^5 MC38 cells, respectively.
When tumors grew to 50-70 mm^3, these mice were randomly assigned to 8 groups, 8 mice per group, this day was at Day 9. From Day 9, the animals were administered with gemcitabine (GEM) in saline at 20 mg/mL, an anti-PD-1 antibody (Toripalimab, Shanghai Junshi Biosciences Co., Ltd. China) in saline at 40 mg/mL, Compound 6 in saline at 8 mg/mL, Compound 6+gemcitabine, gemcitabine+anti-PD-1, Compound 6+anti-PD-1, Compound 6+gemcitabine+anti-PD-1, and the control vehicle (5% GS), respectively, according to the dosing regimen shown in Table 11 below.
Mice were observed every day for their physical conditions and activities, and mice body weight and tumor volume were measured every other day. The tumor volume (V) was calculated as (length×width^2)/2.
Mice body weights, and tumor sizes were analyzed using the t-test in SPSS, and group differences were deemed statistically significant when the p-value was 0.05 or less.
Tumor growth inhibition (TGI) was calculated by the following formula. Tumor growth inhibition=(average tumor size in vehicle group-average tumor size in administration group)/average tumor size in vehicle group×100%
Zheng-Jun Jin's Q value was calculated as described above.

| Structure (SMILES) | Average tumor size ([1]; Day 9) [mm^3] | Average tumor size ([1]; Day 10) [mm^3] | Average tumor size ([1]; Day 12) [mm^3] | Average tumor size ([1]; Day 14) [mm^3] | Average tumor size ([1]; Day 16) [mm^3] | Average tumor size ([1]; Day 18) [mm^3] | Average tumor size ([1]; Day 20) [mm^3] | Average tumor size ([1]; Day 22) [mm^3] | Average tumor size ([1]; Day 23) [mm^3] | Tumor weight based TGI ([1]; Day 23) [%] | Tumor weight, Average ([1]; Day 23) [g] | Tumor weight, Mouse no. 1 ([1]; Day 23) [g] | Tumor weight, Mouse no. 2 ([1]; Day 23) [g] | Tumor weight, Mouse no. 3 ([1]; Day 23) [g] | Tumor weight, Mouse no. 4 ([1]; Day 23) [g] | Tumor weight, Mouse no. 5 ([1]; Day 23) [g] | Tumor weight, Mouse no. 6 ([1]; Day 23) [g] | Tumor weight, Mouse no. 7 ([1]; Day 23) [g] | Tumor weight, Mouse no. 8 ([1]; Day 23) [g] | Average body weight ([2]; Day 9) [g] | further results |
| --- | --- | --- | --- | --- | --- | --- | --- | --- | --- | --- | --- | --- | --- | --- | --- | --- | --- | --- | --- | --- | --- |
| NC(=O)c1nnc(OC2CCCNC2)c2cc(-c3cccc(F)c3)sc12 (stereo not shown) [Compound 6-1, 2-(3-fluorophenyl)-4-(3-piperidinyloxy)-thieno[2,3-d]pyridazine-7-carboxylic acid amide] | 171.59 | 257.64 | 367.95 | 550.08 | 677.06 | 780.61 | 972.02 | 1062.24 | 1179.61 | 45.63 | 1.54 | 0.87 | 1.19 | 2.32 | 2.87 | 1.58 | 1.68 | 1.31 | 0.49 | 16.29 | Average body weight ([2]; Day 10): 16.75 g; Average body weight ([2]; Day 12): 16.89 g; Average body weight ([2]; Day 14): 17.18 g; Average body weight ([2]; Day 16): 17.79 g; Average body weight ([2]; Day 18): 17.99 g; Average body weight ([2]; Day 20): 18.32 g; Average body weight ([2]; Day 22): 18.57 g; Average body weight ([2]; Day 23): 19.31 g; average mice weight, tumor weight deducted ([2]; Day 23): 17.77 g |
| NC(=O)c1nnc(SC2CCCNC2)c2cc(-c3cccc(F)c3)sc12 (stereo not shown) [Compound 6-2, 2-(3-fluorophenyl)-4-(3-piperidinylthio)-thieno[2,3-d]pyridazine-7-carboxylic acid amide] | 196.37 | 278.84 | 391.83 | 570.64 | 698.18 | 805.13 | 974.34 | 1196.22 | 1334.63 | 43.82 | 1.59 | 0.84 | 1.58 | 0.84 | 2.56 | 1.78 | 2.12 | 0.89 | 2.11 | 16.45 | Average body weight ([2]; Day 10): 16.69 g; Average body weight ([2]; Day 12): 16.78 g; Average body weight ([2]; Day 14): 17.22 g; Average body weight ([2]; Day 16): 17.62 g; Average body weight ([2]; Day 18): 18.05 g; Average body weight ([2]; Day 20): 18.67 g; Average body weight ([2]; Day 22): 19.14 g; Average body weight ([2]; Day 23): 19.63 g; average mice weight, tumor weight deducted ([2]; Day 23): 18.04 g |
| NC(=O)c1nnc(CC2CCCNC2)c2cc(-c3cc(Cl)cc(Cl)c3)sc12 (stereo not shown) [Compound 6-3, 2-(3,5-dichlorophenyl)-4-(3-piperidinemethyl)-thieno[2,3-d]pyridazinyl-7-formamide] | 162.03 | 282.00 | 417.93 | 527.17 | 718.27 | 828.07 | 1072.57 | 1334.48 | 1558.87 | 32.73 | 1.90 | 2.85 | 1.24 | 2.76 | 1.31 | 1.97 | 1.03 | 3.12 | 0.95 | 15.99 | Average body weight ([2]; Day 10): 16.25 g; Average body weight ([2]; Day 12): 16.51 g; Average body weight ([2]; Day 14): 17.26 g; Average body weight ([2]; Day 16): 17.91 g; Average body weight ([2]; Day 18): 18.13 g; Average body weight ([2]; Day 20): 18.75 g; Average body weight ([2]; Day 22): 19.38 g; Average body weight ([2]; Day 23): 20.06 g; average mice weight, tumor weight deducted ([2]; Day 23): 18.16 g |
| Nc1ccn([C@@H]2O[C@H](CO)[C@@H](O)C2(F)F)c(=O)n1 [GEM, gemcitabine, reference compound] | – | – | – | – | – | – | – | – | – | – | – | – | – | – | – | – | – | – | – | – | TGI based on tumor sizes [3]: 30.02% |
